Data taken from patent publication US10166253B2, “Positively charged co-polymers for use as antimicrobial agents” (priority 2014, dated 2019).

Tests used:
[1] = tested on: P. aeruginosa (Strain PAO1); assay: Antimicrobial susceptibility testing by flow cytometry-based assay (LIVE/DEAD BacLight, Syto9/PI); assay type: cell-based
Protocol: E. coli (strain NCTC 10418), P. aeruginosa (Strain PAO1) and S. aureus (Wood 46, NCTC 7121) cells were grown in 5 mL of Todd Hewitt Broth medium (THB; Sigma-Aldrich). Bacteria were cultivated at 37° C. for 15 h in a 15 mL tube to obtain late-log phase cultures. Bacterial cultures were pelleted at 3096 g for 10 minutes; the supernatant was discarded and bacteria were resuspended in phosphate-buffered saline (PBS) supplemented with 40 mg/ml human albumin to mimic chemical properties of blood. Bacteria were diluted to a standardized inoculum of 10^9 CFU/mL.
Bacteria were treated with GA, LL-37, Piperacillin/Tazobactam or Vancomycin in varying concentrations, i.e. 50, 25, 10 or 2 μg/ml, for 30 minutes. As a positive control, bacteria were treated with 7% isopropanol. Hereafter, bacteria were pelleted at 3096 g for 10 minutes; the supernatant was discarded and bacteria were resuspended in PBS. The antimicrobial effect was tested in a well-established and widely used flow cytometry-based assay (LIVE/DEAD® BacLight™ Bacterial Viability and Counting Kit (L34856), Molecular Probes/Invitrogen) according to manufacturer's manual.
For each bacteria, the flow cytometry-based assay was repeated four times.
The antibacterial effect of GA on the gram-negative strain P. aeruginosa was tested by carrying out an experiment as described in Example 1. […] Although the untreated control stained positive for PI, this seemed to be explained by the capability of intact P. aeruginosa to secrete large quantities of DNA to the extracellular milieu.

E. coli (NCTC 10418) [2] = assay: Binding of Alexa Fluor 488-labeled GA to bacteria (MFI by flow cytometry); design: species or system Escherichia coli; details: PBS + 50 mM NaCl, total salt 200 mM, GA 50 and 10 μg/ml
Protocol: GA was diluted in freshly made 0.1 M NaHCO3 and labeled with Alexa Fluor 488 according to manufacturer's instruction. Late-log phase E. coli (strain NCTC 10418), P. aeruginosa (strain PAO1, ATCC 15692) and S. aureus (Wood 46, NCTC 7121) were resuspended in PBS or PBS supplemented with 50 mM NaCl; treated with either 50 μg/ml or 10 μg/ml Alexa Fluor® 488-labeled GA and incubated on a shaker at 37° C. for 30 minutes. Hereafter, bacteria were diluted 1:100 in PBS and analyzed on a Novocyte™ flow cytometer.
This constitutes a problem when for example treating patients with cystic fibrosis. These patients have a high salt concentration in their lungs of about 150-200 mM, and it is therefore critical that drugs used for treating these patients are active at such high salt concentrations (Gilljam H et al., Scand J Clin Lab Invest. 1989 April; 49(2):121-4). Therefore, the binding capacity of GA to bacteria resuspended in PBS or in PBS supplemented with 50 mM NaCl. PBS+50 mM NaCl results in a total salt concentration of 200 mM. […]
Mean Fluorescence intensities (MFI) were assessed by flow cytometry to quantify the binding capacity of GA to the bacterial membrane. […]

E. coli (NCTC 10418) [3] = assay: Antimicrobial susceptibility testing (MIC) by the oCelloScope system; assay type: cell-based, Escherichia coli; details: CAMHBT broth, SESA growth curves
Protocol: E. coli (strain NCTC 10418) and S. aureus (Wood 46, NCTC 7121) were grown overnight in Sensititre® cation-adjusted Mueller-Hinton broth with TES (CAMHBT, TREK Diagnostic System). Bacterial cell suspensions were adjusted to 0.5 McFarland standard using a nephelometer. Subsequently, bacteria were diluted in CAMHBT according to the recommended final inoculum size for broth dilution (5×10^5 colony-forming units (CFU) ml^−1) (Wiegand, I., K. Hilpert, and R. E. Hancock, Agar and broth dilution methods to determine the minimal inhibitory concentration (MIC) of antimicrobial substances. Nat Protoc, 2008. 3(2): p. 163-75) and analyzed in Nunc Edge 96-well plates by the oCelloScope system.
The oCelloScope is a digital time-lapse microscopy technology that scans through a fluid sample generating series of images as described in 2013 by Fredborg et al. (Fredborg, M., et al., Real-time optical antimicrobial susceptibility testing. J Clin Microbiol, 2013. 51(7): p. 2047-53). As a result of the tilted imaging plane, the images recorded by the oCelloScope system constitute a parallelepipedum that forms the image stack. […] Growth kinetics was determined by image stack processing based on contrast based Segmentation and Extraction of Surface Area (SESA). […]
The effect of GA on bacterial growth was further evaluated using, an optical screening system (oCelloScope) (FIG. 6). […]

P. aeruginosa (PAO1) = assay: Antimicrobial activity in human serum and plasma (flow cytometry, PI/Syto9); assay type: cell-based, Pseudomonas aeruginosa; details: P. aeruginosa PAO1 ~10^8 cells/ml
Description: It has been reported that the antimicrobial activity of antimicrobial peptides are inhibited by their binding to different factors in human plasma (Wang, Y., et al., Apolipoprotein A-I binds and inhibits the human antibacterial/cytotoxic peptide LL-37. J Biol Chem, 1998. 273(50): p. 33115-8), serum and is influenced by pH and ion composition (Johansson, J., et al., Conformation-dependent antibacterial activity of the naturally occurring human peptide LL-37. J Biol Chem, 1998. 273(6): p. 3718-24). To investigate the potential of GA for systemic application, bacterial isolates of P. aeruginosa (PAO1, ˜10^8 cells/ml) were incubated with increasing concentrations of GA and compared to LL-37. Bacterial survival and enumeration was evaluated by a flow cytometry bead standard and stained with propidium iodide and Syto9 following procedures as previously described above in the antimicrobial susceptibility testing by flow cytometry-based assay. […] All experiments were performed as four replicates.

[4] = within the 30 minutes of treatment

Q: For Glatiramer acetate [GA], which “antimicrobial activity (in words)” value [1, 4] is on record?
A: more potent than when treating bacteria with 7% isopropanol

Q: And the decreased bacterial inoculum [1, 4]?
A: ~75%

Q: And the “increased PI positivity” value ([1]; within the 30 minutes of treatment (FIG. 4 overview))?
A: ~50%

Q: What about the “binding capacity to bacteria (MFI, in words)” value (E. coli (NCTC 10418) [2]) of the same substance?
A: retained its binding capacity

Q: And the MIC (E. coli (NCTC 10418) [3])?
A: 31 µg/mL

Q: What about the “antimicrobial activity in human plasma and serum (in words)” value (P. aeruginosa (PAO1)) of the same substance?
A: retains antimicrobial activity
